Drawing on patent publication US7763627B2, “Tie-2 modulators and methods of use” (Exelixis, Inc., priority 2003, dated 2010), this text covers IC50 for four compounds.

Some results are limits rather than exact numbers.

By IC50 is commonly meant the concentration at which inhibition is half-maximal. A lower IC50 goes with higher potency.

In the assay the target is Tie-2 (Homo sapiens, UniProt Q02763). Nature of the assay: Tie-2 tyrosine kinase inhibition (ATP consumption by luciferase/luciferin chemiluminescence or 33P-ATP incorporation into pEY substrate). It counts as biochemical. Particulars: human enzyme Tie-2; inhibition given as class symbol. Here is the method: Tyrosine kinase activity is determined by 1) measurement of kinase-dependent ATP consumption by in the presence of a generic substrate such as polyglutamine, tyrosin (pEY), by luciferase/luciferin-mediated chemiluminescence or; 2) incorporation of radioactive phosphate derived from ^33P-ATP into a generic substrate which has been adsorbed onto the well surface of polystyrene microtiter plates. Phosphorylated substrate products are quantified by scintillation spectrometry.
Tie-2, sequence (Q02763 23-1124): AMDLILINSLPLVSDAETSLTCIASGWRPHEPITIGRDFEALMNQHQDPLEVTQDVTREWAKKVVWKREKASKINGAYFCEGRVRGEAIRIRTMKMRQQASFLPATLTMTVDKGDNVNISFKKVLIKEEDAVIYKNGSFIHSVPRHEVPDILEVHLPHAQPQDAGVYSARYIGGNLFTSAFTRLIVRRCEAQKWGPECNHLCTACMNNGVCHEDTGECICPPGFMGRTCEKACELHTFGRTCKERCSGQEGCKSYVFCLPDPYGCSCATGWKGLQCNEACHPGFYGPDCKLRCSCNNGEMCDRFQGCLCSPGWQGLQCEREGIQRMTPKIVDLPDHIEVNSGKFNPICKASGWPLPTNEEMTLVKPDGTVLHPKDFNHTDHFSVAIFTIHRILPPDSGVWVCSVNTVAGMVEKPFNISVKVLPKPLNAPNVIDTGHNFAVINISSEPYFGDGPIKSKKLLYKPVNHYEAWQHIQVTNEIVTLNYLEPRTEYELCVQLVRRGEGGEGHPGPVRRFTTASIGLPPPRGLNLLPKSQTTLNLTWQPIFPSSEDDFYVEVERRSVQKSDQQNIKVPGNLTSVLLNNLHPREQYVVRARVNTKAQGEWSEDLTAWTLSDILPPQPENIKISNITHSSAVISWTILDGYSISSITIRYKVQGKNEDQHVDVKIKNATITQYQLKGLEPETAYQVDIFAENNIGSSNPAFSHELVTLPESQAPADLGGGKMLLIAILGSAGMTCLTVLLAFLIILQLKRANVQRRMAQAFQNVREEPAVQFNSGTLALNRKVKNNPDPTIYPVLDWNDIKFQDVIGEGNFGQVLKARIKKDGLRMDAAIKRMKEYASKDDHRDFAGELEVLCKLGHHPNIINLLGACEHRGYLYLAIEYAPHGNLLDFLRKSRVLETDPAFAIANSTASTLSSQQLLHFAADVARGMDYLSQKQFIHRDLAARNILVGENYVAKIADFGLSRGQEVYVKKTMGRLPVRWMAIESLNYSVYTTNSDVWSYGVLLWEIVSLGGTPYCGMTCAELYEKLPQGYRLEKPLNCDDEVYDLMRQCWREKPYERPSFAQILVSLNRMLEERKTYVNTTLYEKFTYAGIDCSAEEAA
Inhibition is indicated as IC50 with following key: A=IC50 less than 50 nM, B=IC50 greater than 50 nM, but less than or equal to 1000 nM, C=IC50 greater than 1000 nM, but less than 10,000 nM, and D=IC50 10,000 nM or greater. The abbreviation for human enzyme, Tie-2, is defined as tyrosine kinase with immunoglobulin and EGF repeats.
With `O[C@@H]1Cc2ccccc2[C@@H]1Nc1nc(-c2ccncc2)nc2ccc(Cl)cc12` [Compound 31, (1S,2R)-1-[(6-chloro-2-pyridin-4-ylquinazolin-4-yl)amino]-2,3-dihydro-1H-inden-2-ol], the IC50 is < 50 nM. In the case of `OC[C@H](Nc1nc(-c2ccncc2)nc2ccccc12)c1ccccc1` [Compound 56, (2R)-2-phenyl-2-[(2-pyridin-4-ylquinazolin-4-yl)amino]ethanol] it was 1000 to 10000 nM; in that of `c1ccc2c(c1)CC[C@H]2Cc1nc(-c2ccncc2)nc2ccccc12` [Compound 16, 4-[(1S)-2,3-dihydro-1H-inden-1-ylmethyl]-2-pyridin-4-ylquinazoline], 1000 to 10000 nM; in that of `c1ccc2c(NC3CCCCC3)nc(-c3ccncc3)nc2c1` [Compound 1, N-cyclohexyl-2-pyridin-4-ylquinazolin-4-amine], 1000 to 10000 nM.
